Literature values in patent US20240292871A1, “A SWEETENER OR SWEETNESS ENHANCER COMPOSITION” (ANALYTICON DISCOVERY GMBH, priority 2020, published 2024).

Conditions: 5% sucrose in water

## COc1ccc([C@@H]2CC(=O)c3c(O)cc(O)cc3O2)cc1O [hesperetin]
  enhances the sweetness of sucrose: 41%
